Laboratory results: PMC6172315, “Relative Selectivity of Plant Cardenolides for Na^+/K^+-ATPases From the Monarch Butterfly and Non-resistant Insects” (Frontiers in Plant Science, 2018)
“Also recorded” adds a separate entry of the source. Like-named read-outs stand apart in the source and are kept apart here.

Tests used:
[1] = target: E. core-Na^+/K^+-ATPase (Euploea core, UniProt A0A5C0C9F5); assay: In vitro inhibition assay of E. core Na+/K+-ATPase (phosphate release); assay type: biochemical; conditions: for inhibition of E. core Na^+/K^+-ATPase compared to ouabain: EC, F-test comparison of entire dose-response curves with ouabain; for IC50: read-out: IC50 E. core- Na^+/K^+-ATPase, Na+/K+-ATPase extracted from butterfly brains
E. core-Na^+/K^+-ATPase, sequence (A0A5C0C9F5 1-1013): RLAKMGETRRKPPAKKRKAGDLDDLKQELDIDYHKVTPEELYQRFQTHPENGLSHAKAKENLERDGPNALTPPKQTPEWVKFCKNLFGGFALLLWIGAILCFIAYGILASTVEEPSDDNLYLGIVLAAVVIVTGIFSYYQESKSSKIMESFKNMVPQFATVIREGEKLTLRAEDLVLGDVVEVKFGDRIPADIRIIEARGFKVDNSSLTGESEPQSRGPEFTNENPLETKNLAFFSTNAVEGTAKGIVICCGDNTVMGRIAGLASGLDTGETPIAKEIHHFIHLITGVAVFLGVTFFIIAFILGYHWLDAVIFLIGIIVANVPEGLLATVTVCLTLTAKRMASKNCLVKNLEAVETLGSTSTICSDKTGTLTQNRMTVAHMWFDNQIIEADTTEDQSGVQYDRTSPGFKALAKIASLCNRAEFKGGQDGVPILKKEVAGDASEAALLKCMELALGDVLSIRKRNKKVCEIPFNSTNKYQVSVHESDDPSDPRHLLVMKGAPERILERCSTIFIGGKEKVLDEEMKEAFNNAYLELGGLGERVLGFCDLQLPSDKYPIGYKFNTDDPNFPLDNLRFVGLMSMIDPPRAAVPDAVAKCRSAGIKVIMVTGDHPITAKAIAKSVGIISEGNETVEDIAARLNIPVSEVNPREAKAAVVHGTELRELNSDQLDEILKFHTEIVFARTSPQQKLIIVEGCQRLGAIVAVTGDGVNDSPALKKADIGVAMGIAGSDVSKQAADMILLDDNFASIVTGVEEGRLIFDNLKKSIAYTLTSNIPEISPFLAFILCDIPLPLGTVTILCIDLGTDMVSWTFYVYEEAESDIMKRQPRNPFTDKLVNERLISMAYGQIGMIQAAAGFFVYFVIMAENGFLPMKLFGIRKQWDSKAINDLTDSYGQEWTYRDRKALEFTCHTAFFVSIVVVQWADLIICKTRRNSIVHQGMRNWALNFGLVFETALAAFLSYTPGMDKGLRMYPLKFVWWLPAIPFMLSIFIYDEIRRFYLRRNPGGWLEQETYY
Method: (§1) Danaus plexippus was caught in the field or purchased; E. core and S. gregaria were obtained commercially, with additional E. core from a laboratory colony. […] Briefly, brains dissected from butterflies stored at -80°C or recta from locusts were homogenized (individually or pooled) with an all glass grinder (Wheaton) in deionized water, frozen at -80°C, freeze-dried, and stored frozen until use. For in vitro assays, lyophilisates were dissolved in water, sonicated in an ultrasonic bath, and centrifuged to remove undissolved matter. All cardiac glycosides were tested at least with three biological replicates of Na^+/K^+-ATPase (i.e., Na^+/K^+-ATPase from genetically different specimens or pools of specimens).
(§2) Means of duplicate determinations (i.e., technical replicates) were used as data points. In consequence, each data point of a dose–response curve is the mean of at least three biological replicates based on two technical replicates, each. […] Here, technical replicates collected on the same 96-well plate were averaged and used as data points.
(§3) Stock solutions of cardiac glycosides, as well as pregnane glycosides, were prepared from crystalline compounds in DMSO. While concentrations of all other compounds were based on mass, calactin, and calotropin stock solutions were adjusted with HPLC using digitoxin as a reference.
(§4) Pairwise statistical comparisons of dose-response curves were carried out using the “compare datasets” option in OriginPro, which is based on an F-Test evaluating if the two curves are identical. Correlation analyses using log10-transformed IC50 values was also carried out with OriginPro. […] To analyze relative selectivity without a reference, we also plotted the fold differences between the IC50 values of individual cardenolides for non-adapted and adapted insect Na^+/K^+-ATPase and compared them to mammalian (lamb) Na^+/K^+-ATPase (Figure 2).

[2] = target: D. plexippus-Na^+/K^+-ATPase (Danaus plexippus, UniProt K0G7C4); assay: In vitro inhibition assay of D. plexippus Na+/K+-ATPase (phosphate release); assay type: biochemical; conditions: for inhibition of D. plexippus Na^+/K^+-ATPase compared to ouabain: DP, F-test comparison of entire dose-response curves with ouabain; for fold difference between IC50 values, non-adapted (E. core/S. gregaria) vs adapted (D. plexippus) insect Na^+/K^+-ATPase: Figure 2, last number, S. gregaria values used for ouabain and digitoxigenin; for IC50: read-out: IC50 D. plexippus- Na^+/K^+-ATPase, Na+/K+-ATPase extracted from butterfly brains
D. plexippus-Na^+/K^+-ATPase, sequence (K0G7C4 1-1009): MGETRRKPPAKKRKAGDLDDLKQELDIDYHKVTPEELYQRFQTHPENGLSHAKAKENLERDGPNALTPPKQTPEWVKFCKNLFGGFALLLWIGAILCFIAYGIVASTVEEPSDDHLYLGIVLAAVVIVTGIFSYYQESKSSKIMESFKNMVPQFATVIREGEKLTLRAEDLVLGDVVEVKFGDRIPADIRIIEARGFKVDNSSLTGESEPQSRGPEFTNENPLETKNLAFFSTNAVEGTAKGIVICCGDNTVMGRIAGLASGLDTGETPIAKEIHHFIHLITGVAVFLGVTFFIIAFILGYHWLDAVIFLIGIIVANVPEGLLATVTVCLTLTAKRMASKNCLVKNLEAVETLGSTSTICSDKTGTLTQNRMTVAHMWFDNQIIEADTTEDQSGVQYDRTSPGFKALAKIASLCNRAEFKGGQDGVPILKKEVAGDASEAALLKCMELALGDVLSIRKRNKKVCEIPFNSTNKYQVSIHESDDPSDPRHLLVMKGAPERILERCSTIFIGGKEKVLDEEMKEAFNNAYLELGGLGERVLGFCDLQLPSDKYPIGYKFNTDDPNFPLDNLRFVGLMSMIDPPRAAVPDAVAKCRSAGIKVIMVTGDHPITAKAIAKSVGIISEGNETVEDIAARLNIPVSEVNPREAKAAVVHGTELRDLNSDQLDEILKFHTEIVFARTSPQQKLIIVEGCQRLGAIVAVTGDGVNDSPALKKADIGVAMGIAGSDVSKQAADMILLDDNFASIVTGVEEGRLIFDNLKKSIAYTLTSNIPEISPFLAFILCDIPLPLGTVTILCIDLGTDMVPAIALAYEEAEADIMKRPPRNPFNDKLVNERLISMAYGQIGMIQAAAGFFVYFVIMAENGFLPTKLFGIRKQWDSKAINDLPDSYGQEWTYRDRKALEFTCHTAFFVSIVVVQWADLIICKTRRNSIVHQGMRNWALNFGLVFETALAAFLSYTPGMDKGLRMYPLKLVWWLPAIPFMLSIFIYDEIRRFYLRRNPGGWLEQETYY
Method: as §1, §2, §3, §4

[3] = target: S. gregaria-Na^+/K^+-ATPase (Schistocerca gregaria, UniProt A0A8E5JSN5); assay type: biochemical
S. gregaria-Na^+/K^+-ATPase, sequence (A0A8E5JSN5 1-1039): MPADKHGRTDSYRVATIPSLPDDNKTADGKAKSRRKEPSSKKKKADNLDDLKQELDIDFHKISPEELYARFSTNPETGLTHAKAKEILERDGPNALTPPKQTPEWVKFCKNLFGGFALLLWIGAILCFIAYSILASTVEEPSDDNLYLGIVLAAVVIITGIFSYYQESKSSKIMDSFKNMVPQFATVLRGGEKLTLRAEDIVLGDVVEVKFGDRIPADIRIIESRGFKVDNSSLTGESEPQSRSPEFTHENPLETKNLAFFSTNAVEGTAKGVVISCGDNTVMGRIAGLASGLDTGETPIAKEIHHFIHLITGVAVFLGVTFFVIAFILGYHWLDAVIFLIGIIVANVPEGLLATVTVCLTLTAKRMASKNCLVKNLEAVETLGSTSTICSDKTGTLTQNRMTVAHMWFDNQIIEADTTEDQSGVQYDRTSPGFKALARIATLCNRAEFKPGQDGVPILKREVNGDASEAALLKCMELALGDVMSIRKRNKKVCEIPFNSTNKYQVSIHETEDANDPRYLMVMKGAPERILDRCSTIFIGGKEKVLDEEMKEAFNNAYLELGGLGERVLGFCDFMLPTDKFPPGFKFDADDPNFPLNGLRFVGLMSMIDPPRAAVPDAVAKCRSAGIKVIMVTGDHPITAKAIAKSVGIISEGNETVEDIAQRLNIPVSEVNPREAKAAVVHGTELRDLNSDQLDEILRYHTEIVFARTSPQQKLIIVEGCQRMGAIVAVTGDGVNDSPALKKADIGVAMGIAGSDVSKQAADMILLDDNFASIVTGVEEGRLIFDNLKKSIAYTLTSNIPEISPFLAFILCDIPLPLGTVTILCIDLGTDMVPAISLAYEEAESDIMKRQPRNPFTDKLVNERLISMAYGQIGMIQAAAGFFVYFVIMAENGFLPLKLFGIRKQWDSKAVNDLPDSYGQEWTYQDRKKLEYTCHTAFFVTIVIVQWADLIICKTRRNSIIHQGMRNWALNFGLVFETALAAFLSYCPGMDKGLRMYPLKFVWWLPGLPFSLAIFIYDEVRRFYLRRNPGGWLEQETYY
Method: as §1, §2, §3, §4

[4] = tested on: lamb Na^+/K^+-ATPase; assay: Fold differences of IC50 between lamb and insect Na+/K+-ATPases; assay type: biochemical; conditions: lamb IC50 inferred from ref Paula et al., 2005; for fold difference between IC50 values, lamb vs adapted insect (D. plexippus) Na^+/K^+-ATPase: Figure 2, first number; for fold difference between IC50 values, lamb vs non-adapted insect (E. core/S. gregaria) Na^+/K^+-ATPase: Figure 2, second number
Method: as §4

[5] = tested on: porcine Na^+/K^+-ATPase; assay: In vitro inhibition assay of porcine Na+/K+-ATPase; assay type: biochemical, pig; conditions: for inhibition of porcine Na^+/K^+-ATPase compared to ouabain: F-test comparison of dose-response curves with ouabain; for IC50: purified from pig brain, 0.01 U/ml in the assay
Method: Lyophilized Na^+/K^+-ATPase was dissolved in water to a concentration of 1 U/ml, stored at -80°C in single-use aliquots and diluted with H2O to 0.05 U/ml for use in the in vitro assay (final concentration in the assay 0.01 U/ml).
as §4

[6] = Na+/K+-ATPase extracted from locust recta; read-out: IC50 S. gregaria- Na^+/K^+-ATPase
[7] = SG; F-test comparison of entire dose-response curves with ouabain
[8] = read-out: IC50 S. gregaria- Na^+/K^+-ATPase; Na+/K+-ATPase extracted from locust recta

| Compound | inhibition of E. core Na^+/K^+-ATPase compared to ouabain [1] | IC50 [1] | inhibition of D. plexippus Na^+/K^+-ATPase compared to ouabain [2] | fold difference between IC50 values, non-adapted (E. core/S. gregaria) vs adapted (D. plexippus) insect Na^+/K^+-ATPase [2] | IC50 [2] | IC50 [3, 6] | inhibition of S. gregaria Na^+/K^+-ATPase compared to ouabain [3, 7] | inhibition by glycoside relative to corresponding genin (strophanthidin) on D. plexippus-Na^+/K^+-ATPase ([2]; cymarin vs strophanthidin) | fold difference between IC50 values, lamb vs adapted insect (D. plexippus) Na^+/K^+-ATPase [4] | fold difference between IC50 values, lamb vs non-adapted insect (E. core/S. gregaria) Na^+/K^+-ATPase [4] | inhibition of porcine Na^+/K^+-ATPase compared to ouabain [5] | IC50 [5] | IC50 [3, 8] |
| --- | --- | --- | --- | --- | --- | --- | --- | --- | --- | --- | --- | --- | --- |
| C[C@@H]1C[C@@H](O)[C@]2(O)O[C@@H]3C[C@@]4(C=O)[C@@H](CC[C@@H]5[C@@H]4CC[C@]4(C)[C@@H](C6=CC(=O)OC6)CC[C@]54O)C[C@H]3O[C@@H]2O1 [calactin] | more potently than ouabain; also recorded: > ouabain; F2,7 = 496.50, p < 0.001 | 0.092 µM | more potently than ouabain; also recorded: > ouabain; F2,7 = 4706.35, p < 0.001 | 23 x | 2.15 µM | – | – | – | – | – | – | – | – |
| C[C@@H]1C[C@H](O)[C@]2(O)O[C@@H]3C[C@@]4(C=O)[C@@H](CC[C@@H]5[C@@H]4CC[C@]4(C)[C@@H](C6=CC(=O)OC6)CC[C@]54O)C[C@H]3O[C@@H]2O1 [calotropin] | > ouabain; F2,7 = 54.31, p < 0.001 | 0.323 µM | > ouabain; F2,7 = 154.4, p < 0.001 | 17 x | 5.36 µM | – | – | – | – | – | – | – | – |
| CO[C@H]1C[C@H](O[C@H]2CC[C@]3(C=O)[C@H]4CC[C@]5(C)[C@@H](C6=CC(=O)OC6)CC[C@]5(O)[C@@H]4CC[C@]3(O)C2)O[C@H](C)[C@H]1O [cymarin] | – | – | > ouabain; F2,6 = 514.53, p < 0.001 | 21 x | 6.99 µM | 0.334 µM | > ouabain; F2,6 = 6.37, p = 0.03 | ninefold | 36 x | 2 x | – | – | – |
| C[C@]12CC[C@H](O[C@@H]3O[C@H](CO)[C@@H](O)[C@H](O)[C@H]3O)C[C@@H]1CC[C@@H]1[C@@H]2CC[C@]2(C)[C@@H](C3=CC(=O)OC3)CC[C@]12O [desglucouzarin] | nearly the same inhibitory effect as ouabain | 0.62 µM | strongly inhibitory effect; also recorded: > ouabain; F2,7 = 455.90, p < 0.001 | 10 x | 6.42 µM | – | – | – | – | – | more strongly than ouabain | 0.268 µM | – |
| C[C@]12CC[C@H](O)C[C@H]1CC[C@@H]1[C@@H]2CC[C@]2(C)[C@@H](C3=CC(=O)OC3)CC[C@]12O [digitoxigenin] | < ouabain; F2,6 = 180.27, p < 0.001 | 4.12 µM | > ouabain; F2,6 = 54.05, p < 0.001 | – | 24.8 µM | – | < ouabain; F2,6 = 17.5, p = 0.003 | – | – | – | – | – | 2.73 µM |
| C[C@H]1O[C@@H](O[C@H]2[C@@H](O)C[C@H](O[C@H]3[C@@H](O)C[C@H](O[C@H]4CC[C@@]5(C)[C@H](CC[C@@H]6[C@@H]5CC[C@]5(C)[C@@H](C7=CC(=O)OC7)CC[C@]65O)C4)O[C@@H]3C)O[C@@H]2C)C[C@H](O)[C@@H]1O [digitoxin, reference compound] | – | – | > ouabain; F2,6 = 116.84, p < 0.001 | – | 14.8 µM | – | = ouabain; F2,6 = 5.07, p = 0.05 | – | – | – | – | – | 1.37 µM |
| C[C@]12CC[C@H](O)C[C@H]1CC[C@@H]1[C@@H]2C[C@@H](O)[C@]2(C)[C@@H](C3=CC(=O)OC3)CC[C@]12O [digoxigenin] | – | – | < ouabain; F2,6 = 30.1, p < 0.001 | – | 379 µM | – | < ouabain; F2,6 = 151.91, p < 0.001 | – | – | – | – | – | 11.8 µM |
| C[C@]12CC[C@H](O)C[C@H]1CC[C@@H]1[C@@H]2CC[C@]2(C)[C@@H](C3=CC(=O)OC3)[C@@H](O)C[C@]12O [gitoxigenin] | – | – | – | 7 x | 256 µM | 37.8 µM | much lower extent compared to ouabain | – | 1633 x | 241 x | – | – | – |
| C[C@@H]1O[C@@H](O[C@H]2CC[C@]3(C=O)[C@H]4CC[C@]5(C)[C@@H](c6ccc(=O)oc6)CC[C@]5(O)[C@@H]4CC[C@]3(O)C2)[C@H](O)[C@H](O)[C@H]1O[C@@H]1O[C@H](CO)[C@@H](O)[C@H](O)[C@H]1O [hellebrin] | – | – | > ouabain; F2,6 = 1420.98, p < 0.001 | – | 0.842 µM | – | – | – | – | – | – | – | – |
| CC(=O)O[C@H]1C[C@H](O[C@H]2[C@@H](O)C[C@H](O[C@H]3[C@@H](O)C[C@H](O[C@H]4CC[C@@]5(C)[C@H](CC[C@@H]6[C@@H]5C[C@@H](O)[C@]5(C)[C@@H](C7=CC(=O)OC7)CC[C@]65O)C4)O[C@@H]3C)O[C@@H]2C)O[C@H](C)[C@H]1O[C@@H]1O[C@H](CO)[C@@H](O)[C@H](O)[C@H]1O [lanatoside C, reference compound] | – | – | < ouabain; F2,6 = 17.23, p = 0.003 | 52 x | 644 µM | 12.4 µM | < ouabain; F2,6 = 82.96, p < 0.001 | – | 1564 x | 30 x | – | – | – |
| CC12CC(O)C3C(CCC4(O)CC(O)CC(O)C34CO)C1(O)CCC2C1=CC(=O)OC1 (centres unmarked) [ouabagenin] | – | – | < ouabain; F2,6 = 80.0, p < 0.001 | 41 x | 841 µM | 20.4 µM | < ouabain; F2,6 = 201.2, p < 0.001 | – | 1821 x | 44 x | – | – | – |
| C[C@@H]1O[C@@H](O[C@H]2C[C@@H](O)[C@]3(CO)[C@H]4[C@H](O)C[C@]5(C)[C@@H](C6=CC(=O)OC6)CC[C@]5(O)[C@@H]4CC[C@]3(O)C2)[C@H](O)[C@H](O)[C@H]1O [ouabain, reference compound] | – | 1.03 µM | – | – | 94 µM | – | – | – | – | – | – | 0.486 µM | 0.997 µM |
| C[C@]12CC[C@H]3[C@@H](CC[C@]4(O)C[C@@H](O)CC[C@]34C=O)[C@@]1(O)CC[C@@H]2C1=CC(=O)OC1 [strophanthidin] | – | – | > ouabain; F2,6 = 9.41, p = 0.01 | – | 64.8 µM | – | – | – | – | – | – | – | – |
| C[C@]12CC[C@H](O[C@@H]3O[C@H](CO[C@@H]4O[C@H](CO)[C@@H](O)[C@H](O)[C@H]4O)[C@@H](O)[C@H](O)[C@H]3O)C[C@@H]1CC[C@@H]1[C@@H]2CC[C@]2(C)[C@@H](C3=CC(=O)OC3)CC[C@]12O [uzarin] | far weaker inhibition than ouabain; also recorded: < ouabain; F2,7 = 39.97, p < 0.001 | 2.91 µM | substantially stronger inhibition than ouabain; also recorded: > ouabain; F2,7 = 70.04, p < 0.001 | 6 x | 18.8 µM | – | – | – | – | – | not different from the effect of ouabain | 0.452 µM | – |
